Data from article PMC3832616, “Crystal Structure of the Pleckstrin Homology Domain from the Ceramide Transfer Protein: Implications for Conformational Change upon Ligand Binding” (PLoS ONE, 2013).

Biological target: T1, Ceramide transfer protein (CERT) (Homo sapiens, UniProt Q9Y5P4)
T1 construct: gene CERT1; PH domain, residues 20–122 (three extra amino acids G-E-F before residue 20)
T1 sequence (Q9Y5P4 20-122): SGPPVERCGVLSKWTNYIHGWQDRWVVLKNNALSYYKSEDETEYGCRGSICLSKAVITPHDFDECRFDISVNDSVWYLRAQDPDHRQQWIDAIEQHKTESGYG
Test: […]-1H HSQC NMR chemical shift titration, global fit
Format: binding

CCCCCC(=O)OC[C@H](COP(=O)(O)O[C@H]1[C@H](O)[C@@H](O)[C@H](OP(=O)(O)O)[C@@H](O)[C@H]1O)OC(=O)CCCCC [diC6-PtdIns(4)P]
Kd: 470 ± 14 µM
